Read-outs that look alike come from different tables or passages of the source.
What was measured:
[1] = molecular target: T1, Myt1 kinase (recombinant PMYT-1) (Homo sapiens, UniProt Q99640); experiment: Myt1 kinase binding assay (LanthaScreen Eu Kinase Binding Assay); details: 3 nM tracer 178, 2.5 nM PMYT-1, 1 nM Eu-labeled antibody; read-out: Myt1 kinase Binding IC50
T1 construct: full length PMYT-1 was expressed by baculovirus in insect cells; purchased Invitrogen A30984; host or cells: insect cells (baculovirus)
T1 sequence (Q99640 1-499): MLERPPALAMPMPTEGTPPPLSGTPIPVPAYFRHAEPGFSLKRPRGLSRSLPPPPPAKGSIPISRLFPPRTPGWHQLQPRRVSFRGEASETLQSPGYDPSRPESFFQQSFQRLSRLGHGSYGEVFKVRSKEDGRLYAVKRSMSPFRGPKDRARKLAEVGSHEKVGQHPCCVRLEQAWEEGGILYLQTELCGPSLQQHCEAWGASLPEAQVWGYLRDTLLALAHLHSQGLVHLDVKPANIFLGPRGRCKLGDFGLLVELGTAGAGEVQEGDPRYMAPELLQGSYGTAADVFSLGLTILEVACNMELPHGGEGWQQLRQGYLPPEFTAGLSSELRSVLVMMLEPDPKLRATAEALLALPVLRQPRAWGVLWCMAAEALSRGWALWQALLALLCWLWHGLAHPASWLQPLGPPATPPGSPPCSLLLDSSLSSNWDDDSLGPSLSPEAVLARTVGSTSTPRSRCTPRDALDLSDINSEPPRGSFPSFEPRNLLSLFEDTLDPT
Procedure, shortened: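 Compound binding to Myt1 kinase was assessed using the LanthaScreen Eu Kinase Binding Assay. This europium-based binding format was applied to quantify how strongly each compound bound to the Myt1 enzyme, and the binding affinity was reported for each compound as an IC50 value.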

ACHN cells = experiment: Cell Titer Glo viability assay, ACHN cells; format: cell-based; details: 144 h, absolute EC50
Description: Each of an ACHN renal cell carcinoma cell line (ATCC) and a DAOY medulloblastoma cell line, and an A427 lung cancer line were cultured in Minimum Essential Medium Eagle supplemented with 10% fetal calf serum (Sigma), 1% Penicillin-Streptomycin and 10 mM HEPES buffer (HyClone). Cell cultures were kept in a humidified incubator at 37 °C and 5% CO2. Cells were routinely tested for Mycoplasma contamination.
ACHN cells, DAOY cells, or A427 cells were seeded at a density of 400, 250, or 500 cells per well respectively, in tissue culture treated 384 well plates (Corning Costar). After overnight incubation, cells were treated with drugs at concentrations ranging from 17 to 10 000 nM. Viability compared to untreated control was assessed at 144 h using Cell Titer Glo assay 2.0 (Promega). […] “NT” means the compounds was not tested in the indicated cells.

[2] = molecular target: T2, Wee1A kinase (CDK1 Tyr15 phosphorylation in ACHN renal cell carcinoma cells) (Homo sapiens, UniProt P30291); experiment: High-content imaging of pCdk1 Y15, Wee1A kinase target engagement in ACHN cells; format: cell-based
T2 construct: pCDK1 Tyr15 immunofluorescence read-out
T2 sequence (P30291 whole entry): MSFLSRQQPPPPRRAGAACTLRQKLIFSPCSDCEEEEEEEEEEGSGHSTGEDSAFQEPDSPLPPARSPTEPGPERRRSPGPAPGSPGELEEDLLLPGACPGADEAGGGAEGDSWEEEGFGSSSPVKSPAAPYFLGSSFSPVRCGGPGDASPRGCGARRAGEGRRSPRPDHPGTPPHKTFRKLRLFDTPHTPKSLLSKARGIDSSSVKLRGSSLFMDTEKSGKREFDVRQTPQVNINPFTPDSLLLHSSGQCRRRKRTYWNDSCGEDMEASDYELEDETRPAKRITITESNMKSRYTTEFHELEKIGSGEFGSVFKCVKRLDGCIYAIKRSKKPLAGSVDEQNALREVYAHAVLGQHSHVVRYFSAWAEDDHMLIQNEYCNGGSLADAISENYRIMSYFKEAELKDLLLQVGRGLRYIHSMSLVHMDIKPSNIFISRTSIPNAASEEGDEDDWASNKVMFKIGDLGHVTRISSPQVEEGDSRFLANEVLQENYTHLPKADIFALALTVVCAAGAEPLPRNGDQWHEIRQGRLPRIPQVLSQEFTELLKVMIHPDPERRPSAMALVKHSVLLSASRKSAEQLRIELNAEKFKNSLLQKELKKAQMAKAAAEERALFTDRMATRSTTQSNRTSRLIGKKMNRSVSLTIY
Procedure, shortened: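 EC50 values come from the per-well fraction of cells with nuclear pCdk1 Y15 staining, normalised to DMSO control, by automated immunofluorescence imaging. Cells were ACHN renal carcinoma, treated 4 h with compound at 7–5,000 nM or 0.3–200 nM.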

[3] = molecular target: T3, recombinant human Wee1A kinase (Homo sapiens, UniProt P30291); experiment: Wee1A kinase binding assay (LanthaScreen Eu time-resolved FRET)
T3 construct: full length Wee1 kinase was expressed by baculovirus in insect cells; purchased Invitrogen PV3817; host or cells: insect cells (baculovirus)
T3 sequence (P30291 whole entry): as above
Procedure, shortened: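 Full-length, baculovirus-expressed GST-tagged Wee1A (5 nM) was mixed with 2 nM Eu-anti-GST antibody, 30 nM kinase tracer 178 and compound (1% DMSO). Buffer was 50 mM HEPES pH 7.5, 10 mM MgCl2, 1 mM EGTA, 0.01% Brij-35, incubated 60 min at room temperature. TR-FRET 665/615 nm emission ratios from duplicates were curve-fitted.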

[4] = 4 h treatment, nuclear positivity for pCdk1 Y15 vs DMSO control, read-out: CDK1 Tyr15 Phosphorylation EC50
[5] = 30 nM tracer 178, 5 nM Wee1A kinase, 2 nM Eu-labeled antibody, 60 minutes at room temperature, read-out: Wee1A kinase Binding IC50

Compound | IC50 [1] [nM] | EC50 (ACHN cells; Homo sapiens) [nM] | EC50 [2, 4] [nM] | IC50 [3, 5] [nM] | EC50 (ACHN cells) [nM] | EC50 ([2]; read-out: CDK1 Tyr15 Phosphorylation EC50, 4 h treatment, nuclear positivity for pCdk1 Y15 vs DMSO control) [nM] | IC50 [3] [nM]
C=CCn1c(=O)c2cnc(Nc3ccc4c(cnn4C)c3)nc2n1-c1cccc(N[C@@H]2CCNC2)n1 [Compound 102, 1-{6-[(R)-3-pyrrolidinylamino]-2-pyridyl}-2-allyl-6-(1-methyl-1H-indazol-5-ylamino)-1,2-dihydro-3H-1,2,5,7-tetraazainden-3-one] | 20 to 100 | > 1000 | > 1000 | < 10 |  |  | 
C=CCn1c(=O)c2cnc(Nc3ccc4ccoc4c3)nc2n1-c1cccc(OC2CCN(C)CC2)n1 [Compound 195] | 100 to 500 |  | < 100 |  | ≤ 100 |  | 
CCn1c(=O)c2cnc(Nc3ccc4c(cnn4C)c3)nc2n1-c1cccc(N(C)C2CCN(C)CC2)n1 [Compound 287, 1-{6-[N-methyl(1-methyl-4-piperidyl)amino]-2-pyridyl}-2-ethyl-6-(1-methyl-1H-indazol-5-ylamino)-1,2-dihydro-3H-1,2,5,7-tetraazainden-3-one] |  | 100 to 500 |  |  |  | < 100 | < 10
C=CCn1c(=O)c2cnc(Nc3ccc4c(cnn4C)c3)nc2n1-c1cccc(O[C@@H]2CCCN(C)C2)n1 [Compound 331, 6-[(1-methyl-1H-indazol-5-yl)amino]-1-(6-{[(3R)-1-methylpiperidin-3-yl]oxy}pyridin-2-yl)-2-(prop-2-en-1-yl)-1H,2H,3H-pyrazolo[3,4-d]pyrimidin-3-one] |  | 100 to 500 | < 100 | < 10 |  |  | 
C=CCn1c(=O)c2cnc(Nc3cccc(-n4cccn4)c3)nc2n1-c1cccc(OC2CCN(C)CC2)n1 [Compound 364, 2-allyl-1-[6-(1-methyl-4-piperidyloxy)-2-pyridyl]-6-[m-(1-pyrazolyl)phenylamino]-1,2-dihydro-3H-1,2,5,7-tetraazainden-3-one] | 20 to 100 |  | < 100 | < 10 |  |  | 
C=CCn1c(=O)c2cnc(Nc3cccc(-n4ccnc4)c3)nc2n1-c1cccc(OC2CCN(C)CC2)n1 [Compound 365, 2-allyl-6-[m-(1-imidazolyl)phenylamino]-1-[6-(1-methyl-4-piperidyloxy)-2-pyridyl]-1,2-dihydro-3H-1,2,5,7-tetraazainden-3-one] | 20 to 100 |  | < 100 | < 10 |  |  | 
CCn1c(=O)c2cnc(Nc3cccc(-c4cncnc4)c3)nc2n1-c1cccc(OC2CCNCC2)n1 [Compound 366, 2-ethyl-1-[6-(4-piperidyloxy)-2-pyridyl]-6-[m-(5-pyrimidinyl)phenylamino]-1,2-dihydro-3H-1,2,5,7-tetraazainden-3-one] | 100 to 500 |  | 500 to 1000 | < 10 |  |  | 
CCn1c(=O)c2cnc(Nc3cccc(-c4cncnc4)c3)nc2n1-c1cccc(OC2CCN(C)CC2)n1 [Compound 367, 2-ethyl-1-[6-(1-methyl-4-piperidyloxy)-2-pyridyl]-6-[m-(5-pyrimidinyl)phenylamino]-1,2-dihydro-3H-1,2,5,7-tetraazainden-3-one] | 100 to 500 |  | < 100 | < 10 |  |  | 
C=CCn1c(=O)c2cnc(Nc3cccc(-c4cccnc4)c3)nc2n1-c1cccc(OC2CCN(C)CC2)n1 [Compound 368, 2-allyl-1-[6-(1-methyl-4-piperidyloxy)-2-pyridyl]-6-[m-(3-pyridyl)phenylamino]-1,2-dihydro-3H-1,2,5,7-tetraazainden-3-one] | 20 to 100 |  | 100 to 500 | < 10 |  |  | 
C=CCn1c(=O)c2cnc(Nc3ccc(OCC(F)(F)F)cc3)nc2n1-c1ccnc(OC2CCN(C3COC3)CC2)n1 [Compound 371, 2-allyl-1-(2-((1-(oxetan-3-yl)piperidin-4-yl)oxy)pyrimidin-4-yl)-6-((4-(2,2,2-trifluoroethoxy)phenyl)amino)-1,2-dihydro-3H-pyrazolo[3,4-d]pyrimidin-3-one] | 100 to 500 |  | < 100 | < 10 |  |  | 
C=CCn1c(=O)c2cnc(Nc3ccc4c(cnn4C(C)C)c3)nc2n1-c1ccnc(OC2CCNCC2)n1 [Compound 375, 2-allyl-6-((1-isopropyl-1H-indazol-5-yl)amino)-1-(2-(piperidin-4-yloxy)pyrimidin-4-yl)-1,2-dihydro-3H-pyrazolo[3,4-d]pyrimidin-3-one] | 20 to 100 |  | < 100 | < 10 |  |  | 
C=CCn1c(=O)c2cnc(Nc3ccc4c(cnn4C4CC4)c3)nc2n1-c1cccc(OC2CCNCC2)n1 [Compound 376, 2-allyl-6-((1-cyclopropyl-1H-indazol-5-yl)amino)-1-(6-(piperidin-4-yloxy)pyridin-2-yl)-1,2-dihydro-3H-pyrazolo[3,4-d]pyrimidin-3-one] | < 20 |  | < 100 | < 10 |  |  | 
C=CCn1c(=O)c2cnc(Nc3ccc(OCCF)cc3)nc2n1-c1ccnc(OC2CCNCC2)n1 [Compound 391, 2-allyl-6-((4-(2-fluoroethoxy)phenyl)amino)-1-(2-(piperidin-4-yloxy)pyrimidin-4-yl)-1,2-dihydro-3H-pyrazolo[3,4-d]pyrimidin-3-one] | 20 to 100 |  | 100 to 500 | < 10 |  |  | 
C=CCn1c(=O)c2cnc(Nc3ccc4cn(C)nc4c3)nc2n1-c1cccc(OC2CCNCC2)n1 [Compound 393, 2-allyl-6-((2-methyl-2H-indazol-6-yl)amino)-1-(6-(piperidin-4-yloxy)pyridin-2-yl)-1,2-dihydro-3H-pyrazolo[3,4-d]pyrimidin-3-one] | 20 to 100 |  | 100 to 500 | < 10 |  |  | 
C=CCn1c(=O)c2cnc(Nc3ccc4c(cnn4C)c3)nc2n1-c1cccc(OC2CCNC(C)C2)n1 [Compound 404, rel-2-allyl-6-((1-methyl-1H-indazol-5-yl)amino)-1-(6-(((2R,4R)-2-methylpiperidin-4-yl)oxy)pyridin-2-yl)-1,2-dihydro-3H-pyrazolo[3,4-d]pyrimidin-3-one] | 20 to 100 |  | < 100 | < 10 |  |  | 
C=CCn1c(=O)c2cnc(Nc3cnc4c(cnn4C(C)C)c3)nc2n1-c1cccc(OC2CCNCC2)n1 [Compound 407, 2-allyl-6-((1-isopropyl-1H-pyrazolo[3,4-b]pyridin-5-yl)amino)-1-(6-(piperidin-4-yloxy)pyridin-2-yl)-1,2-dihydro-3H-pyrazolo[3,4-d]pyrimidin-3-one] | < 20 |  | < 100 | < 10 |  |  | 
C=CCn1c(=O)c2cnc(Nc3ccc4c(c3)nnn4C(C)C)nc2n1-c1cccc(OC2CCNCC2)n1 [Compound 408, 2-allyl-6-((1-isopropyl-1H-benzo[d][1,2,3]triazol-5-yl)amino)-1-(6-(piperidin-4-yloxy)pyridin-2-yl)-1,2-dihydro-3H-pyrazolo[3,4-d]pyrimidin-3-one] | < 20 |  | < 100 | < 10 |  |  | 
C=CCn1c(=O)c2cnc(Nc3ccc4c(c3)nnn4C(C)C)nc2n1-c1cccc(OC2CCN(C)CC2)n1 [Compound 409, 2-allyl-6-((1-isopropyl-1H-benzo[d][1,2,3]triazol-5-yl)amino)-1-(6-((1-methylpiperidin-4-yl)oxy)pyridin-2-yl)-1,2-dihydro-3H-pyrazolo[3,4-d]pyrimidin-3-one] | < 20 |  | < 100 | < 10 |  |  | 
